US8426202B2, “Cell culture medium” (Cellca GmbH, priority 2005, dated 2013)
Values joined by “and” are separate entries in the source; they are usually repeats but may differ in a detail not shown here. Equal values may be shown once. Read-outs that look alike come from different tables or passages of the source.

Assays:
[1] = test system: CHO cell line that expresses an antibody; conditions: fed-batch; substance 1 g/l; supernatant, ELISA; absolute value of the control set at 100%
Method: A CHO cell line that expresses an antibody was used for the experiments. The product concentration (antibody concentration) in the cell supernatant was determined by ELISA.
From selected samples, the product concentration (antibody concentration) in the supernatant was determined by ELISA (Table 3)

[2] = test system: CHO cell line that expresses an antibody; conditions: fed-batch, basal medium 4 mM glutamine, feed with 3 g/l Ala-Gln and 3 g/l Gly-Gln, substance 0.5-1 g/l
Method: (§1) A CHO cell line that expresses an antibody was used for the experiments.
The experiments were carried out either in batch mode or in fed-batch mode. When the process was carried out in fed-batch mode, the process was first started in batch mode in the above-mentioned basal medium and cells were cultivated in this manner for 1-4 days. After 1-4 days the cells were supplemented with a feed medium, i.e. the process was switched to fed-batch mode. Feed took place at regular intervals. In fed-batch experiments, a protein-free and serum-free feed medium from the company HyQ (R05.2 supplement, Cat. No.: SH30584.04, Lot No.: APF21457G) was used.
From the stock solutions, the substances were put at the desired final concentration in culture tubes. The various culture tubes prepared in this way were finally inoculated with the antibody-producing CHO-clone at a target inoculation cell concentration (1-3×10^5/ml). For this, the corresponding amount of inoculum cells was calculated and the required amount of inoculum cell suspension was centrifuged. […] In this way the desired inoculation cell concentration was adjusted in the cell suspension being investigated. The cell suspension thus prepared was proportioned in the culture tubes, which were provided with the substances according to the invention beforehand. The culture tubes were incubated at 37° C., and 8% CO2 atmosphere, with shaking. The culture tubes were cultivated for 8-11 days in the batch mode or in the fed-batch mode. Samples for offline measurement of the variables were taken from the culture vessels at regular intervals, for example daily or on every third day. The metabolic variables and cell concentrations of the samples were measured. Cell concentration and cell vitality were measured with a CeDex instrument. The metabolic variables (glucose, lactate, glutamine and ammonium) were determined with an analyzer (BioProfile 100).
(§2) The following final concentrations of the substances according to the invention were established in a nutrient medium after inoculation:
The substances according to the invention were tested under fed-batch conditions. […] The feed medium used was from the company HyQ (R05.2 supplement, Cat. No.: SH30584.04, Lot No.: APF21457G). 3 g/l alanyl-glutamine (Ala-Gin) and 3 g/l glycyl-glutamine (Gly-Gln) were added to the feed medium.

[3] = test system: CHO cell line that expresses an antibody; experiment: Fed-batch experiment with the substances according to the invention (Example 2, Table 2); format: cell-based, Chinese hamster
Text: Feed took place at regular intervals.

[4] = test system: CHO cell line that expresses an antibody; experiment: Batch experiment with the substances according to the invention (Example 1); format: cell-based, Chinese hamster; conditions: batch mode, substance 0.5-1 g/l, basal medium glucose 4.7 g/l, glutamine […]
[5] = test system: CHO cell line that expresses an antibody; conditions: fed-batch, glutamine-free basal and feed media, substance 0.5-1 g/l
Text: as §1
This is a serum-free, protein-free nutrient medium. It is a ready-made, sterile-filtered nutrient medium.
After 1-4 days the cells were supplemented with a feed medium, i.e. the process was switched to fed-batch mode. Feed took place at regular intervals. In fed-batch experiments, a protein-free and serum-free feed medium from the company HyQ (R05.2 supplement, Cat. No.: SH30584.04, Lot No.: APF21457G) was used.
All substances (chemicals) used according to the invention were obtained from the company Sigma and stock solutions were prepared from them. From the stock solutions, the substances were put at the desired final concentration in culture tubes. The various culture tubes prepared in this way were finally inoculated with the antibody-producing CHO-clone at a target inoculation cell concentration (1-3×10^5/ml). For this, the corresponding amount of inoculum cells was calculated and the required amount of inoculum cell suspension was centrifuged. […] In this way the desired inoculation cell concentration was adjusted in the cell suspension being investigated. The cell suspension thus prepared was proportioned in the culture tubes, which were provided with the substances according to the invention beforehand. The culture tubes were incubated at 37° C., and 8% CO2 atmosphere, with shaking. The culture tubes were cultivated for 8-11 days in the batch mode or in the fed-batch mode. Samples for offline measurement of the variables were taken from the culture vessels at regular intervals, for example daily or on every third day. The metabolic variables and cell concentrations of the samples were measured. Cell concentration and cell vitality were measured with a CeDex instrument. The metabolic variables (glucose, lactate, glutamine and ammonium) were determined with an analyzer (BioProfile 100).
as §2
The substances according to the invention were tested under fed-batch conditions. […] The feed medium used was from the company HyQ (R05.2 supplement, Cat. No.: SH30584.04, Lot No.: APF21457G). The feed medium was glutamine-free (Table 4).

SMILES: O=C([O-])CCC(=O)[O-].[Na+].[Na+] [Sodium succinate]
- Antibody concentration [1]: 127%
- Total Cell Density TCD ([2]; day 0): 1.1 E5/ml
- Viabil. ([2]; day 0): 96%
- Viable Cell Density (VCD) ([2]; day 0): 1.0 E5/ml
- Total Cell Density TCD ([2]; day 3): 9.3 E5/ml
- Viabil. ([2]; day 3): 95%
- Viable Cell Density (VCD) ([2]; day 3): 8.8 E5/ml
- Total Cell Density TCD ([2]; day 5): 56.7 E5/ml
- Viabil. ([2]; day 5): 96%
- Viable Cell Density (VCD) ([2]; day 5): 54.3 E5/ml
- Total Cell Density TCD ([2]; day 7): 42.0 E5/ml
- Viabil. ([2]; day 7): 82%
- Viable Cell Density (VCD) ([2]; day 7): 34.5 E5/ml
- Total Cell Density TCD ([2]; day 9): 35.9 E5/ml
- Viabil. ([2]; day 9): 74%
- Viable Cell Density (VCD) ([2]; day 9): 26.7 E5/ml
- Total Cell Density TCD ([3]; day 0, fed-batch): 1.5 E5/ml
- Viabil. ([3]; day 0, fed-batch): 91%
- Viable Cell Density (VCD) ([3]; day 0, fed-batch): 1.37 E5/ml
- Total Cell Density TCD ([3]; day 2, fed-batch): 4.2 E5/ml and 4.4 E5/ml
- Viabil. ([3]; day 2, fed-batch): 98%
- Viable Cell Density (VCD) ([3]; day 2, fed-batch): 4.1 E5/ml and 4.3 E5/ml
- Total Cell Density TCD ([3]; day 5, fed-batch): 18.1 E5/ml
- Viabil. ([3]; day 5, fed-batch): 97%
- Viable Cell Density (VCD) ([3]; day 5, fed-batch): 17.5 E5/ml
- Total Cell Density TCD ([3]; day 8, fed-batch): 62.2 E5/ml and 64.1 E5/ml
- Viabil. ([3]; day 8, fed-batch): 90% and 92%
- Viable Cell Density (VCD) ([3]; day 8, fed-batch): 55.7 E5/ml and 58.8 E5/ml
- Gln ([4]; day 0): 1.53 mM
- Glucose ([4]; day 0): 4.69 g/L
- Lactate ([4]; day 0): 0 g/L
- NH4 ([4]; day 0): 1.22 mM
- Specific Glutamin consumption (Gln/VCD) ([4]; day 0): 1.49
- Specific ammonia production (NH4/VCD) ([4]; day 0): 1.18
- Specific glucose consumption (Gluc/VCD) ([4]; day 0): 4.55
- Specific lactate production (Lac/VCD) ([4]; day 0): 0.00
- Total Cell Density TCD ([4]; day 0): 1.07 E5/ml
- Viabil. ([4]; day 0): 96%
- Viable Cell Density (VCD) ([4]; day 0): 1.03 E5/ml
- Gln ([4]; day 3): 0.76 mM
- Glucose ([4]; day 3): 3.82 g/L
- Lactate ([4]; day 3): 0.86 g/L
- NH4 ([4]; day 3): 1.84 mM
- Specific Glutamin consumption (Gln/VCD) ([4]; day 3): 0.09
- Specific ammonia production (NH4/VCD) ([4]; day 3): 0.22
- Specific glucose consumption (Gluc/VCD) ([4]; day 3): 0.47
- Specific lactate production (Lac/VCD) ([4]; day 3): 0.10
- Total Cell Density TCD ([4]; day 3): 8.3 E5/ml
- Viabil. ([4]; day 3): 99%
- Viable Cell Density (VCD) ([4]; day 3): 8.2 E5/ml
- Gln ([4]; day 6): 0.31 mM
- Glucose ([4]; day 6): 2.4 g/L
- Lactate ([4]; day 6): 1.19 g/L
- NH4 ([4]; day 6): 2.25 mM
- Specific Glutamin consumption (Gln/VCD) ([4]; day 6): 0.01
- Specific ammonia production (NH4/VCD) ([4]; day 6): 0.05
- Specific glucose consumption (Gluc/VCD) ([4]; day 6): 0.05
- Specific lactate production (Lac/VCD) ([4]; day 6): 0.02
- Total Cell Density TCD ([4]; day 6): 49.1 E5/ml
- Viabil. ([4]; day 6): 98%
- Viable Cell Density (VCD) ([4]; day 6): 48.1 E5/ml
- Gln ([4]; day 8): 0.36 mM
- Glucose ([4]; day 8): 1.44 g/L
- Lactate ([4]; day 8): 1.14 g/L
- NH4 ([4]; day 8): 2.33 mM
- Specific Glutamin consumption (Gln/VCD) ([4]; day 8): 0.01
- Specific ammonia production (NH4/VCD) ([4]; day 8): 0.09
- Specific glucose consumption (Gluc/VCD) ([4]; day 8): 0.06
- Specific lactate production (Lac/VCD) ([4]; day 8): 0.04
- Total Cell Density TCD ([4]; day 8): 29.8 E5/ml
- Viabil. ([4]; day 8): 86%
- Viable Cell Density (VCD) ([4]; day 8): 25.6 E5/ml
- Gln ([4]; day 11): 0.52 mM
- Glucose ([4]; day 11): 0.22 g/L
- Lactate ([4]; day 11): 1.59 g/L
- NH4 ([4]; day 11): 3 mM
- Specific Glutamin consumption (Gln/VCD) ([4]; day 11): 0.03
- Specific ammonia production (NH4/VCD) ([4]; day 11): 0.18
- Specific glucose consumption (Gluc/VCD) ([4]; day 11): 0.01
- Specific lactate production (Lac/VCD) ([4]; day 11): 0.10
- Total Cell Density TCD ([4]; day 11): 32.8 E5/ml
- Viabil. ([4]; day 11): 50%
- Viable Cell Density (VCD) ([4]; day 11): 16.3 E5/ml
- Sp. Gluc cons. ([5]; day 0): 95
- Sp. NH4 prod ([5]; day 0): 98 % of control
- TCD ([5]; day 0): 100 % of control
- VCD ([5]; day 0): 100 % of control
- Viabil. ([5]; day 0): 94%
- Sp. Gluc cons. ([5]; day 3): 74
- Sp. Lactate prod. ([5]; day 3): 75 % of control
- Sp. NH4 prod ([5]; day 3): 72 % of control
- TCD ([5]; day 3): 124 % of control
- VCD ([5]; day 3): 132 % of control
- Viabil. ([5]; day 3): 95%
- Sp. Gluc cons. ([5]; day 5): 88
- Sp. Lactate prod. ([5]; day 5): 93 % of control
- Sp. NH4 prod ([5]; day 5): 90 % of control
- TCD ([5]; day 5): 108 % of control
- VCD ([5]; day 5): 111 % of control
- Viabil. ([5]; day 5): 95%
- Sp. Gluc cons. ([5]; day 7): 78
- Sp. Lactate prod. ([5]; day 7): 89 % of control
- Sp. NH4 prod ([5]; day 7): 85 % of control
- TCD ([5]; day 7): 118 % of control
- VCD ([5]; day 7): 117 % of control
- Viabil. ([5]; day 7): 87%
- Sp. Gluc cons. ([5]; day 9): 69
- Sp. Lactate prod. ([5]; day 9): 78 % of control
- Sp. NH4 prod ([5]; day 9): 74 % of control
- TCD ([5]; day 9): 134 % of control
- VCD ([5]; day 9): 136 % of control
- Viabil. ([5]; day 9): 94%
